Results published in US9018263B2, “Antimicrobial compositions comprising trimethylene glycol oligomer and methods of using the compositions” (E I du Pont de Nemours and Company, priority 2010, dated 2015).

Key:
[1] = test system: Staphylococcus aureus ATCC 6538; experiment: Example 4: di(1,3-propanediol) and DPG, plate counts; format: cell-based; conditions: for CFU/mL: S. aureus inoculum; for effect on gram positive bacteria (in words): S. aureus
Protocol: [The source words this procedure for another target and reports this target under the same test.] (§1) Two test microorganisms were used, the Gram-negative bacterium, Escherichia coli ATCC 8739, and the Gram-positive bacterium, Staphylococcus aureus ATCC 6538. These microrganisms were grown overnight in 10 mL Tryptic soy broth (TSB) starter cultures, and then inoculated into Klett flasks containing 30 mL of TSB. The Klett flasks were incubated on an incubator shaker at 37° C. until the desired Klett reading was obtained (early stationary phase). Each test inoculum was prepared by adding 0.1 mL of the Klett flask culture to 9.9 mL of Mueller-Hinton II Broth (cation-adjusted) or M9 Broth.
(§2) The unfractionated mixture, each fraction, a control, and DPG (comparative example) were analyzed for antibacterial or bacteristatic properties against E. coli according to the protocol shown below. Numbers in exponential format are indicated with “E”, i.e. 2.2×10^+9 are written as 2.2E+09.

[2] = test system: Escherichia coli ATCC 8739; experiment: as above; format: cell-based; conditions: for CFU/mL: E. coli inoculum
Protocol: as §1, §2

| Compound | CFU/mL ([1]; Conc. 0.1%) [CFU/mL] | CFU/mL ([1]; Conc. 0.5%) [CFU/mL] | CFU/mL ([1]; Conc. 1%) [CFU/mL] | effect on gram positive bacteria (in words) ([1]; concentrations of 0.5% and 1%) | CFU/mL ([2]; Conc. 0.1%) [CFU/mL] | CFU/mL ([2]; Conc. 0.5%) [CFU/mL] | CFU/mL ([2]; Conc. 1%) [CFU/mL] | effect on gram negative bacteria (in words) ([2]; E. coli, concentrations of 0.5% and 1%) | CFU/mL ([1]; Conc. 10%) [CFU/mL] | effect on gram positive bacteria (in words) ([1]; 0.1 to 10%) | CFU/mL ([2]; Conc. 10%) [CFU/mL] |
| --- | --- | --- | --- | --- | --- | --- | --- | --- | --- | --- | --- |
| OCCCOCCCO [PDO Dimer, di(1,3-propanediol)] | 2.7E+07 | 1.4E+04 | 1.6E+03 | kills or inhibits the growth | 3.2E+08 | 7.6E+02 | <10 | kills or inhibits the growth | – | – | – |
| 1,2-dipropaneglycol [DPG] | 2.0E+07 | 2.0E+07 | 2.0E+07 | – | 2.1E+08 | 2.9E+08 | 3.7E+08 | – | 2.1E+07 | little or no antibacterial or bacteristatic effect | 1.5E+05 |
